Publication PMC2949467 (Journal of inorganic biochemistry, 2010)

Tests used:
[1] = tested on: T. cruzi epimastigotes (Tulahuen 2 strain); experiment: In vitro activity on T. cruzi epimastigotes; format: cell-based; conditions: Trypanosoma cruzi, 120 h, read-out: PGI25μM (%) (epimastigote): percentage of growth inhibition of T. cruzi epimastigote cells
T. cruzi = conditions: cited from earlier work

O=P(O)(O)C(O)(Cc1cccnc1)P(=O)(O)O [NaRis, (1-hydroxy-1-phosphono-2-pyridin-3-yl-ethyl)phosphonate]
inhibition at 25 µM [1]: 19%
Parasitemia in infected mice (T. cruzi): significantly reduces the parasitemia
Toxicity in infected mice (T. cruzi): no toxicity
Animal survival (T. cruzi; infected mice): increases the animal survival
